Among the data in PubChem BioAssay AID248 (DTP/NCI, 2004) are T/C values, retold here.

This assay relates to L1210 leukemia ip in BDF1 mice, survival T/C. Description: NCI In Vivo Anticancer Drug Screen. Data for tumor model L1210 Leukemia (intraperitoneal) in B6D2F1 (BDF1) mice. The settings on record: endpoint: mean survival time, higher = longer survival. Summed up:
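Ratio derived from survival: compound-dosed mice over vehicle-dosed mice, all bearing a transplantable tumor.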

Where [1] appears, read: dose: 100.0 mg/kg/injection, schedule: Q04DX002 (ip), vehicle: Klucel (hydroxypropylcellulose) (HPC).
The mark [2] stands for this setting: dose: 200.0 mg/kg/injection, schedule: Q04DX002 (ip), vehicle: Klucel (hydroxypropylcellulose) (HPC).
Setting [3] is: dose: 400.0 mg/kg/injection, schedule: Q01DX009 (ip), vehicle: carboxymethylcellulose (CMC).
[4] abbreviates: dose: 400.0 mg/kg/injection, schedule: Q04DX002 (ip), vehicle: Klucel (hydroxypropylcellulose) (HPC).
The mark [5] stands for this setting: dose: 400.0 mg/kg/injection, schedule: Q01DX001 (ip), vehicle: carboxymethylcellulose (CMC).
Where [6] appears, read: dose: 100.0 mg/kg/injection, schedule: Q01DX009 (ip), vehicle: Klucel (hydroxypropylcellulose) (HPC).
The mark [7] stands for this setting: dose: 200.0 mg/kg/injection, schedule: Q01DX009 (ip), vehicle: Klucel (hydroxypropylcellulose) (HPC).
Where [8] appears, read: dose: 100.0 mg/kg/injection, schedule: Q01DX001 (ip), vehicle: Klucel (hydroxypropylcellulose) (HPC).
[9] abbreviates: dose: 200.0 mg/kg/injection, schedule: Q01DX001 (ip), vehicle: Klucel (hydroxypropylcellulose) (HPC).
Setting [10] is: dose: 400.0 mg/kg/injection, schedule: Q01DX001 (ip), vehicle: Klucel (hydroxypropylcellulose) (HPC).
Setting [11] is: dose: 100.0 mg/kg/injection, schedule: Q04DX003 (ip), vehicle: Klucel (hydroxypropylcellulose) (HPC).
The mark [12] stands for this setting: dose: 200.0 mg/kg/injection, schedule: Q04DX003 (ip), vehicle: Klucel (hydroxypropylcellulose) (HPC).
Setting [13] is: dose: 400.0 mg/kg/injection, schedule: Q04DX003 (ip), vehicle: Klucel (hydroxypropylcellulose) (HPC).
The mark [14] stands for this setting: dose: 50.0 mg/kg/injection, schedule: Q04DX003 (ip), vehicle: Klucel (hydroxypropylcellulose) (HPC).

Several values for one entry are separate records, joined by “and”; a condition that tells them apart may be missing. Equal values may be shown once. Toxic doses and inconclusive results are not listed.

In the case of `Cc1cc(OC(=O)Nc2cccc3ccccc23)ccc1Cl`, the T/C is, setting by setting: (dose: 100.0 mg/kg/injection, schedule: Q01DX009 (ip), vehicle: carboxymethylcellulose (CMC)) 97 % of control and 101 % of control; under setting [1], 105 % of control; (dose: 100.0 mg/kg/injection, schedule: Q04DX002 (ip), vehicle: carboxymethylcellulose (CMC)) 93 % of control and 91 % of control; (dose: 100.0 mg/kg/injection, schedule: Q04DX003 (ip), vehicle: carboxymethylcellulose (CMC)) 103 % of control; (dose: 200.0 mg/kg/injection, schedule: Q01DX009 (ip), vehicle: carboxymethylcellulose (CMC)) 98 % of control and 91 % of control; under setting [2], 97 % of control. The T/C reads like this: (dose: 200.0 mg/kg/injection, schedule: Q04DX002 (ip), vehicle: carboxymethylcellulose (CMC)) 97 % of control and 98 % of control; (dose: 200.0 mg/kg/injection, schedule: Q04DX003 (ip), vehicle: carboxymethylcellulose (CMC)) 94 % of control; under setting [3], 94 % of control and 98 % of control; under setting [4], 109 % of control; (dose: 400.0 mg/kg/injection, schedule: Q04DX002 (ip), vehicle: carboxymethylcellulose (CMC)) 95 % of control; (dose: 400.0 mg/kg/injection, schedule: Q04DX003 (ip), vehicle: carboxymethylcellulose (CMC)) 90 % of control.
Take `O=c1onc(-c2ccccc2)c2ccccc12`: the T/C was 106 % of control (dose: 12.5 mg/kg/injection, schedule: Q04DX002 (ip), vehicle: saline with Tween-80); 106 % of control (dose: 25.0 mg/kg/injection, schedule: Q04DX002 (ip), vehicle: saline with Tween-80); 103 % of control (dose: 50.0 mg/kg/injection, schedule: Q04DX002 (ip), vehicle: saline with Tween-80).
With `COc1ccc(Oc2ccccc2)cc1-c1ccccc1`, the T/C by setting is: (dose: 100.0 mg/kg/injection, schedule: Q01DX001 (ip), vehicle: carboxymethylcellulose (CMC)) 93 % of control; (dose: 200.0 mg/kg/injection, schedule: Q01DX001 (ip), vehicle: carboxymethylcellulose (CMC)) 102 % of control; under setting [5], 96 % of control.
On to `C=CCc1ccc(OC(=O)Nc2ccc(C(=O)OCC)cc2)c(OC)c1`, for which the T/C is 90 % of control under setting [6] and 90 % of control under setting [7].
As for `C/C=C/C(=O)Nc1cccc(Cl)c1`, the T/C was 92 % of control (dose: 100.0 mg/kg/injection, schedule: Q01DX009 (ip), vehicle: other) and 100 % of control (dose: 200.0 mg/kg/injection, schedule: Q01DX009 (ip), vehicle: other).
For `Cc1ccccc1C(O)c1ccccc1Cl` (stereo not drawn), the T/C runs as follows: (dose: 100.0 mg/kg/injection, schedule: Q01DX001 (ip), vehicle: saline with Tween-80) 109 % of control; (dose: 200.0 mg/kg/injection, schedule: Q01DX001 (ip), vehicle: saline with Tween-80) 102 % of control; (dose: 400.0 mg/kg/injection, schedule: Q01DX001 (ip), vehicle: saline with Tween-80) 94 % of control.
For the compound `COc1cc2c(cc1NC(=O)N(CCCl)N=O)-c1ccccc1C2`, the T/C (dose: 22.0 mg/kg/injection, schedule: Q01DX009 (ip), vehicle: carboxymethylcellulose (CMC)) was 150 % of control; the T/C (dose: 33.0 mg/kg/injection, schedule: Q01DX009 (ip), vehicle: carboxymethylcellulose (CMC)) is 152 % of control; the T/C (dose: 50.0 mg/kg/injection, schedule: Q01DX009 (ip), vehicle: carboxymethylcellulose (CMC)) was 169 % of control; the T/C (dose: 75.0 mg/kg/injection, schedule: Q01DX009 (ip), vehicle: carboxymethylcellulose (CMC)) is 152 % of control; the T/C (dose: 118.0 mg/kg/injection, schedule: Q01DX009 (ip), vehicle: carboxymethylcellulose (CMC)) is 250 % of control; the T/C (dose: 177.0 mg/kg/injection, schedule: Q01DX001 (ip), vehicle: other) was 123 % of control. The T/C was 256 % of control (dose: 177.0 mg/kg/injection, schedule: Q01DX009 (ip), vehicle: carboxymethylcellulose (CMC)); 151 % of control (dose: 266.0 mg/kg/injection, schedule: Q01DX001 (ip), vehicle: carboxymethylcellulose (CMC)); 155 % of control (dose: 266.0 mg/kg/injection, schedule: Q01DX001 (ip), vehicle: other); 284 % of control (dose: 266.0 mg/kg/injection, schedule: Q01DX009 (ip), vehicle: carboxymethylcellulose (CMC)); 173 % of control under setting [5]; 170 % of control (dose: 400.0 mg/kg/injection, schedule: Q01DX001 (ip), vehicle: other). Moreover, the T/C was 196 % of control under setting [3]; 196 % of control (dose: 600.0 mg/kg/injection, schedule: Q01DX001 (ip), vehicle: carboxymethylcellulose (CMC)); 164 % of control (dose: 600.0 mg/kg/injection, schedule: Q01DX001 (ip), vehicle: other).
Regarding `Cc1nc(N)[nH]c(=O)c1CCCNc1cccc(C(F)(F)F)c1`, the T/C was 92 % of control under setting [8], 92 % of control under setting [9] and 97 % of control under setting [10].
Turning to `O=C(Nc1ccc(C2=NCCN2)cc1)c1ccc(CNc2ccc(C3=NCCN3)cc2)cc1`, the T/C is 93 % of control (dose: 0.5 mg/kg/injection, schedule: Q01DX Z (ip), vehicle: water); 96 % of control (dose: 1.0 mg/kg/injection, schedule: Q01DX Z (ip), vehicle: water); 113 % of control (dose: 2.0 mg/kg/injection, schedule: Q01DX Z (ip), vehicle: water); 111 % of control (dose: 4.0 mg/kg/injection, schedule: Q01DX Z (ip), vehicle: water); 159 % of control (dose: 6.25 mg/kg/injection, schedule: Q01DX Z (ip), vehicle: water); 276 % of control (dose: 12.5 mg/kg/injection, schedule: Q01DX Z (ip), vehicle: water). Besides, the T/C (dose: 25.0 mg/kg/injection, schedule: Q01DX Z (ip), vehicle: water) is 188 % of control.
For the compound `Cc1ccccc1N=Cc1cc(Cl)ccc1O`, the T/C runs as follows: under setting [8], 97 % of control; under setting [11], 88 % of control; under setting [9], 95 % of control; under setting [12], 97 % of control; under setting [10], 93 % of control; under setting [13], 101 % of control.
With `O=CNc1ccc2ccccc2c1`, the T/C is 92 % of control (dose: 37.5 mg/kg/injection, schedule: Q04DX003 (ip), vehicle: Klucel (hydroxypropylcellulose) (HPC)); 97 % of control (dose: 75.0 mg/kg/injection, schedule: Q04DX003 (ip), vehicle: Klucel (hydroxypropylcellulose) (HPC)); 103 % of control (dose: 150.0 mg/kg/injection, schedule: Q04DX003 (ip), vehicle: Klucel (hydroxypropylcellulose) (HPC)).
On to `CCOC(=O)c1ccc(NC(=O)Oc2ccccc2C(=O)OC)cc1`, for which the T/C reads like this: under setting [6], 96 % of control; under setting [7], 97 % of control; (dose: 400.0 mg/kg/injection, schedule: Q01DX009 (ip), vehicle: Klucel (hydroxypropylcellulose) (HPC)) 93 % of control.
With `C=C(C)C[N+]1(CC)CCN=C1CCCCCCCCCCCCCCCCC` (stereo not drawn), the T/C is, setting by setting: (dose: 0.31 mg/kg/injection, schedule: Q01DX Z (ip), vehicle: saline) 100 % of control; (dose: 0.47 mg/kg/injection, schedule: Q01DX Z (ip), vehicle: saline) 96 % of control; (dose: 0.7 mg/kg/injection, schedule: Q01DX Z (ip), vehicle: saline) 102 % of control; (dose: 1.05 mg/kg/injection, schedule: Q01DX Z (ip), vehicle: saline) 96 % of control.
In the case of `CC(C)CCCC(C)CCCC(C)CCCCC(C)CCCC(C)CCCC(C)C` (stereo not drawn), the T/C under setting [1] is 103 % of control, the T/C under setting [2] was 106 % of control and the T/C under setting [4] was 109 % of control.
Consider `CN(C)CC/C=C1\c2ccccc2CCSc2ccccc21`, for which the T/C runs as follows: (dose: 25.0 mg/kg/injection, schedule: Q04DX003 (ip), vehicle: Klucel (hydroxypropylcellulose) (HPC)) 100 % of control; under setting [14], 100 % of control; under setting [11], 98 % of control.
For the compound `O=C(Nc1cccc(C(F)(F)F)c1)C(c1ccccc1)c1ccccc1`, the T/C runs as follows: under setting [14], 98 % of control; under setting [6], 100 % of control; under setting [11], 110 % of control; under setting [7], 100 % of control; under setting [12], 93 % of control; under setting [13], 101 % of control.
